Key:
gankyrin [1] = molecular target: T1, gankyrin (Homo sapiens, UniProt O75832); test: ITC (Kd […], stoichiometry […]); also label-free MST (Kd […]), thermal shift, 1H-15N HSQC NMR; format: binding
T1 construct: gene PSMD10; His-tagged full-length human gankyrin
T1 sequence (O75832 1-226): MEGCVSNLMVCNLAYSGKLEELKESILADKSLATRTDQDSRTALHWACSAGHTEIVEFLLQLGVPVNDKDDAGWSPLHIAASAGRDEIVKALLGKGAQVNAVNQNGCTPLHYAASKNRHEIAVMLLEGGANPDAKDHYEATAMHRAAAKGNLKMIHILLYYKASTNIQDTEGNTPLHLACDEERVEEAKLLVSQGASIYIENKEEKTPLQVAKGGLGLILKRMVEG

gankyrin [2] = molecular target: T1, gankyrin; test: ITC; format: binding

Compound | Kd (gankyrin [1]) [µM] | Kd (gankyrin [2]) [µM]
COC(=O)c1ccc(-n2cc(CCCOS(=O)(=O)c3ccc(C)cc3)nn2)cc1 [cjoc42] | 0.58 ± 0.07 | 
COC(=O)c1ccc(-n2cc(CNS(=O)(=O)c3ccc4ccccc4c3)nn2)cc1 [compound 12] |  | ~56
CCCNC(=O)c1ccc(-n2cc(CCCNS(=O)(=O)c3ccc(C)cc3)nn2)cc1 [compound 8] |  | ~10
